Experiments:
EXPRES 02 cells = assay: CXCR4 expression by FACS after DE differentiation; format: cell-based, human; settings: passage 14, day 4; 100 nM GSK-3B inhibitor IX with 0.5% FBS, 20 ng/ml WNT-3a, 100 ng/ml activin-A (about 40% in earlier protocol without inhibitor)
Procedure: (§1) Adhered human embryonic stem cells were removed from culture plates by a five-minute incubation with TrypLE™ Express solution (Invitrogen, CA). Released cells were resuspended in human embryonic stem cell culture medium and recovered by centrifugation, followed by washing and resuspending the cells in a staining buffer consisting of 2% BSA, 0.05% sodium azide in PBS (Sigma, Mo.). As appropriate, the cells were Fc-receptor blocked for 15 minutes using a 0.1% γ-globulin (Sigma) solution. […] Controls included appropriate isotype matched antibodies, unstained cells, and cells stained only with secondary conjugated antibody. All incubations with antibodies were performed for 30 mins at 4° C., after which the cells were washed with the staining buffer. Samples that were stained with unconjugated primary antibodies were incubated for an additional 30 mins at 4° C. with secondary conjugated PE or -APC labeled antibodies. See Table IB for a list of secondary antibodies used. Washed cells were pelleted and resuspended in the staining buffer, and the cell surface molecules were identified using a FACS Array (BD Biosciences) instrument, collecting at least 10,000 events. […]

EXPRES 01 cells = assay: CXCR4 expression by FACS after DE differentiation; format: cell-based, human; settings: passage 19, day 4; 100 nM GSK-3B inhibitor IX with 0.5% FBS, 20 ng/ml WNT-3a, 100 ng/ml activin-A (about 17% in earlier protocol without inhibitor)
Procedure: as §1

[1] = test system: human embryonic stem cell line H9; assay: Attachment of single human embryonic stem cells on uncoated TCPS with or without ROCK inhibitor; format: cell-based; settings: 10 μm ROCK inhibitor, 24 hrs after seeding on TCPS, hypoxic (approximately 3% O2), compared to cultures without ROCK inhibitor
Procedure: Cells from the human embryonic stem cell line H9 at passage 35 lines were cultured under hypoxic conditions (approximately 3% O2) for at least three passages. The cells were cultured in MEF-CM supplemented with 8 ng/ml of bFGF and plated on MATRIGEL coated plates according to Example 1. At approximately 60% confluency, the cultures were exposed to TrypLE™ Express solution (Invitrogen, CA) for 5 mins. Released cells were resuspended in DM-F12+2% FBS medium, recovered by centrifugation, and counted using a hemocytometer. The released cells were seeded at 1000-10,000 cells/cm^2 on tissue culture polystyrene (TCPS) flasks and cultured in DM-F12+2% FBS+100 ng/ml activin-A+20 ng/ml WNT-3A+50 ng/ml of IGF-I+0.1 mM mercaptoethanol (Invitrogen, CA), non-essential amino acids (1×, NEAA from Invitrogen, CA)+/−10 μm ROCK inhibitor (Y-27632, Calbiochem, CA) under hypoxic conditions (approximately 3% O2) at 37° C. in a standard tissue culture incubator. The TCPS flaks were not coated with MATRIGEL or other extracellular matrix proteins. The media was changed daily. The first passage cells are referred to as P1. […] EXPRES cells derived using the ROCK inhibitor, Y27632 were designated as EXPRES 15.

[2] = test system: Mouse Embryo Fibroblast (MEF); assay: Cell cycle analysis of mitomycin treated feeder cells; format: cell-based
Procedure: MEF cells, derived from E13 to 13.5 mouse embryos, were purchased from Charles River. MEF cells were expanded in DMEM medium supplemented with 10% FBS (Hyclone), 2 mM glutamine, and 100 mM MEM nonessential amino acids. Sub-confluent MEF cell cultures were treated with 10 μg/ml mitomycin C (Sigma, St. Louis, Mo.) for 3 h to arrest cell division, then trypsinized and plated at 2×10^4/cm2 on 0.1% bovine gelatin-coated dishes. MEF cells from passage two through four were used as feeder layers. […] For cell cycle analysis, cells were stained with 7AAD, and analyzed on FACS Array.

EXPRES 03 cells = assay: Proliferation and cell cycle analysis (BRDU incorporation, 7AAD); format: cell-based, human
Procedure: Methods: Cells were seeded at 5,000-10,000 cells/cm^2 in Cell Bind tissue culture flasks (Corning) and cultured for 2-4 days. EXPRES 03 cells were cultured either in growth medium containing 2% FBS in DMEM/F12 and Activin-A (100 ng/ml), wnt3a (10-20 ng/ml) and IGF (50 ng/ml). For comparative proliferation analysis, IGF was sometimes omitted from the growth factor cocktail. Cell proliferation was analyzed using the APC BRDU Flow kit according to the Manufacturer's recommendations (BD Biosciences, San Diego, Calif.). Briefly, cells were pulsed with BRDU for 1-2 hrs at the end of culture period, released using Tryple E Express and counted. Cells were fixed in BD Cytofix/Cytosperm Buffer, incubated for 30 min, followed by incubation with BD Cytoperm buffer for 10 minutes on ice. Cells were then treated with DNAse for 1 hr at 37° C. to expose incorporated BRDU, followed by staining with APC conjugated anti-BRDU antibody. For cell cycle analysis, cells were stained with 7AAD, and analyzed on FACS Array.

EXPRES cells = assay: Population doubling time of EXPRES cells in growth media; format: cell-based, human; settings: H9-derived EXPRES cells on TCPS, hypoxic; IGF-I at 50 ng/ml added to growth media (DMEM-F12+2% FBS+100 ng/ml activin-A+20 ng/ml WNT-3A)
Procedure: Cells from the human embryonic stem cell lines H1 and H9 various passages (Passage 30-54) were cultured under hypoxic conditions (approximately 3% 02) for at least three passages. The cells were cultured in MEF-CM supplemented with 8 ng/ml of bFGF and plated on MATRIGEL coated plates according to Example 1. The cells were exposed to the DE protocol outlined in Example 5. At days 3-6, the cultures were exposed to TrypLE™ Express solution (Invitrogen, CA) for 5 mins. Released cells were resuspended in DMEM-F12+2% FBS medium, recovered by centrifugation, and counted using a hemocytometer. The released cells were seeded at 1000-10,000 cells/cm^2 on tissue culture polystyrene (TCPS) treated flasks and cultured in DMEM-F12+2% FBS+100 ng/ml activin-A+20 ng/ml WNT-3A under hypoxic conditions (approximately 3% O2) at 37° C. in standard tissue culture incubator. The TCPS flaks were not coated with MATRIGEL or other extracellular matrix proteins. The media was changed daily. In some cultures, the media was further supplemented with 10-50 ng/ml of IGF-I (insulin growth factor-I from R&D Systems, MN) or 1×ITS (Insulin, transferrin, and selenium from Invitrogen, Ca). In some of the culture conditions the basal media (DM-F12+2% FBS) was further supplemented with 0.1 mM mercaptoethanol (Invitrogen, CA) and non-essential amino acids (1×, NEAA from Invitrogen, CA). […]

[3] = test system: expanded cells derived from human embryonic stem cell line H9; assay: Real-time PCR of DE and visceral endoderm markers in expanded cells; format: cell-based
Procedure: Real-time PCR amplification and quantitative analysis: Unless otherwise stated, all reagents were purchased from Applied Biosystems. Real-time PCR reactions were performed using the ABI PRISM® 7900 Sequence Detection System. TAQMAN® UNIVERSAL PCR MASTER MIX® (ABI, CA) was used with 20 ng of reverse transcribed RNA in a total reaction volume of 20 μl. Each cDNA sample was run in duplicate to correct for pipetting errors. Primers and FAM-labeled TAQMAN® probes were used at concentrations of 200 nM. The level of expression for each target gene was normalized using a human glyceraldehyde-3-phosphate dehydrogenase (GAPDH) endogenous control previously developed by Applied Biosystems. SOX-17 primers were designed using the PRIMERS program (ABI, CA) and were the following sequences: SOX-17: TGGCGCAGCAGATACCA, AGCGCCTTCCACGACTTG, and […]. After an initial incubation at 50° C. for 2 min followed by 95° C. for 10 min, samples were cycled 40 times in two stages—a denaturation step at 95° C. for 15 sec followed by an annealing/extension step at 60° C. for 1 min. Data analysis was carried out using GENEAMP®7000 Sequence Detection System software. For each primer/probe set, a Ct value was determined as the cycle number at which the fluorescence intensity reached a specific value in the middle of the exponential region of amplification. Relative gene expression levels were calculated using the comparative Ct method. Briefly, for each cDNA sample, the endogenous control Ct value was subtracted from the gene of interest Ct to give the delta Ct value (ΔCt). The normalized amount of target was calculated as 2-ΔCt, assuming amplification to be 100% efficiency. Final data were expressed relative to a calibrator sample.
Cultures derived from the parental human embryonic stem cell line H9 according to the methods described in Example 6 were passaged every 4-7 days. FIG. 5 depicts real-time PCR results for the expanded cells cultured in 2% FBS+DMEM-F12+100 ng/ml of activin-A+20 of WNT3A for three passages. […] There is a clear decrease in DE markers, such as SOX-17 and HNF-3 beta following each passage. […]

[4] = addition of 50 ng/ml IGF-I and withdrawal of Activin-A and WNT-3A

Molecule: O=C1Nc2cc(Br)ccc2/C1=C1/Nc2ccccc2/C1=N\O [GSK-3B inhibitor IX]
- CXCR4 positive cells (EXPRES 02 cells): approximately 86%
- CXCR4 positive cells (EXPRES 01 cells): approximately 57%

Molecule: C[C@@H](N)[C@H]1CC[C@H](C(=O)Nc2ccncc2)CC1 [Y-27632]
- number of attached cells [1]: significantly larger number of attached cells

Molecule: CO[C@@]12[C@H](COC(N)=O)C3=C(C(=O)C(C)=C(N)C3=O)N1C[C@@H]1N[C@@H]12 [mitomycin, mitomycin C]
- cells in G2/M phase [2]: 64%

Molecule: IGF-I: insulin growth factor-I from R&D Systems; recombinant human IGF-1
- frequency of cells in S-phase, presence versus absence of IGF (EXPRES 03 cells; BRDU exposure for 1 hour or more): only marginal differences
- number of cells grown in presence of IGF relative to absence of IGF (EXPRES 03 cells; IGF 50 ng/ml, after 3-4 days): 2-3 times
- population doubling time (EXPRES cells): approximately 55 hrs
- expression of DE markers along with OCT-4 [3, 4]: precipitous drop
- expression of visceral endoderm markers, such as SOX-7 and AFP [3, 4]: increase

Molecule: WNT3A
- expression of DE markers ([3]; WNT3A added to growth media containing activin-A): significant boost

— patent US7939322B2, “Cells expressing pluripotency markers and expressing markers characteristic of the definitive endoderm” (Centocor Ortho Biotech Inc., priority 2008, dated 2011)
